PubChem BioAssay (NCI)
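Where inhibition never reached the appropriate level, the endpoint shown equals the highest concentration tested. Otherwise, values were interpolated linearly from a five-concentration, 48-hour dose response in 96-well plates. The concentration for full growth arrest is given as TGI.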

Legend:
Assay in all cases: NCI-60 cell line screen, 48 h
IGROV1 ovarian = tested on: IGROV1 ovarian
M14 melanoma = tested on: M14 melanoma
SK-OV-3 ovarian = tested on: SK-OV-3 ovarian
UO-31 renal = tested on: UO-31 renal
RXF 393 renal = tested on: RXF 393 renal
OVCAR-4 ovarian = tested on: OVCAR-4 ovarian
MOLT-4 leukemia = tested on: MOLT-4 leukemia
TK-10 renal = tested on: TK-10 renal
NCI-H460 lung = tested on: NCI-H460 lung
SNB-19 CNS = tested on: SNB-19 CNS
786-0 renal = tested on: 786-0 renal
U251 CNS = tested on: U251 CNS
A549 NSCLC = tested on: A549 NSCLC
BT-549 breast = tested on: BT-549 breast
EKVX NSCLC = tested on: EKVX NSCLC
UACC-62 melanoma = tested on: UACC-62 melanoma
T-47D breast = tested on: T-47D breast
SK-MEL-28 melanoma = tested on: SK-MEL-28 melanoma
DU-145 prostate = tested on: DU-145 prostate
SN12C renal = tested on: SN12C renal
HCT-116 colon = tested on: HCT-116 colon
KM12 colon = tested on: KM12 colon
UACC-257 melanoma = tested on: UACC-257 melanoma
NCI-H23 lung = tested on: NCI-H23 lung
HCC-2998 colon = tested on: HCC-2998 colon
SF-295 CNS = tested on: SF-295 CNS
CCRF-CEM leukemia = tested on: CCRF-CEM leukemia
SR leukemia = tested on: SR leukemia
SF-268 CNS = tested on: SF-268 CNS
NCI-H522 lung = tested on: NCI-H522 lung
OVCAR-3 ovarian = tested on: OVCAR-3 ovarian
MDA-N = tested on: MDA-N
SNB-75 CNS = tested on: SNB-75 CNS
CAKI-1 renal = tested on: CAKI-1 renal
HS 578T breast = tested on: HS 578T breast
HT29 colon = tested on: HT29 colon
SF-539 CNS = tested on: SF-539 CNS
HCT-15 colon = tested on: HCT-15 colon
SW-620 colon = tested on: SW-620 colon
PC-3 prostate = tested on: PC-3 prostate
MCF7 breast = tested on: MCF7 breast
HL-60(TB) leukemia = tested on: HL-60(TB) leukemia
MDA-MB-435 = tested on: MDA-MB-435
NCI-H226 lung = tested on: NCI-H226 lung
SK-MEL-5 melanoma = tested on: SK-MEL-5 melanoma
HOP-62 NSCLC = tested on: HOP-62 NSCLC
OVCAR-8 ovarian = tested on: OVCAR-8 ovarian
RPMI-8226 leukemia = tested on: RPMI-8226 leukemia
MDA-MB-231 breast = tested on: MDA-MB-231 breast
NCI/ADR-RES ovarian = tested on: NCI/ADR-RES ovarian
ACHN renal = tested on: ACHN renal
COLO 205 colon = tested on: COLO 205 colon
K-562 leukemia = tested on: K-562 leukemia

Measured: TGI

CN(C(=O)CC(=O)CP(=O)(c1ccccc1)c1ccccc1)c1ccccc1
> 100 µM: IGROV1 ovarian | M14 melanoma | SK-OV-3 ovarian | UO-31 renal | RXF 393 renal | OVCAR-4 ovarian | MOLT-4 leukemia | TK-10 renal | NCI-H460 lung | SNB-19 CNS | 786-0 renal | U251 CNS | A549 NSCLC | BT-549 breast | EKVX NSCLC | UACC-62 melanoma | T-47D breast | SK-MEL-28 melanoma | DU-145 prostate | SN12C renal | HCT-116 colon | KM12 colon | UACC-257 melanoma | NCI-H23 lung | HCC-2998 colon | SF-295 CNS | CCRF-CEM leukemia | SR leukemia | SF-268 CNS | NCI-H522 lung | OVCAR-3 ovarian | MDA-N | SNB-75 CNS | CAKI-1 renal | HS 578T breast | HT29 colon | SF-539 CNS | HCT-15 colon | SW-620 colon | PC-3 prostate | MCF7 breast | HL-60(TB) leukemia | MDA-MB-435 | NCI-H226 lung | SK-MEL-5 melanoma | HOP-62 NSCLC | OVCAR-8 ovarian | RPMI-8226 leukemia | MDA-MB-231 breast | NCI/ADR-RES ovarian | ACHN renal | COLO 205 colon | K-562 leukemia
